# According to patent publication US20250281498A1, “FUSED AMINO PYRIMIDINE COMPOUNDS FOR TREATMENT OF SYNUCLEINOPATHIES AND TDP-43 PROTEINOPATHIES” (Ovid Therapeutics Inc., priority 2024, published 2025):
# Experiments:
# [1] = system: panel of 144 protein kinases; test: protein kinase panel (SelectScreen; Thermofisher); assay type: biochemical; settings: panel incl. protein kinase C isoforms, OSR1, SPAK (STK39), WNK
# Description: Aliquots of HEK-293 cells expressing KCC2 were exposed to 30 μM SSA, heated from 37-55° C. The remaining level of soluble native KCC2 at each temperature was measured by immunoblotting and normalized to the level seen at 37° C. which was given a value of 1. […] This panel included protein kinase C isoforms, OSR1, SPAK (STK39) and with-no-lysine kinases (WNK), all of which phosphorylate KCC2 on multiple residues to indirectly modify its activity (Kahle et al., 2013, supra; Smalley et al., 2020, supra).
# KCC2 [2] = target: T1, KCC2 (Homo sapiens, UniProt Q9H2X9); test: FLIPR TI+ flux assay, HEK-293 cells expressing KCC2; assay type: cell-based
# T1 construct: expressed in transfected cells; host or cells: HEK-293 (ATCC CRL-1573)
# T1 sequence (Q9H2X9 1-1116 isoform Q9H2X9-2): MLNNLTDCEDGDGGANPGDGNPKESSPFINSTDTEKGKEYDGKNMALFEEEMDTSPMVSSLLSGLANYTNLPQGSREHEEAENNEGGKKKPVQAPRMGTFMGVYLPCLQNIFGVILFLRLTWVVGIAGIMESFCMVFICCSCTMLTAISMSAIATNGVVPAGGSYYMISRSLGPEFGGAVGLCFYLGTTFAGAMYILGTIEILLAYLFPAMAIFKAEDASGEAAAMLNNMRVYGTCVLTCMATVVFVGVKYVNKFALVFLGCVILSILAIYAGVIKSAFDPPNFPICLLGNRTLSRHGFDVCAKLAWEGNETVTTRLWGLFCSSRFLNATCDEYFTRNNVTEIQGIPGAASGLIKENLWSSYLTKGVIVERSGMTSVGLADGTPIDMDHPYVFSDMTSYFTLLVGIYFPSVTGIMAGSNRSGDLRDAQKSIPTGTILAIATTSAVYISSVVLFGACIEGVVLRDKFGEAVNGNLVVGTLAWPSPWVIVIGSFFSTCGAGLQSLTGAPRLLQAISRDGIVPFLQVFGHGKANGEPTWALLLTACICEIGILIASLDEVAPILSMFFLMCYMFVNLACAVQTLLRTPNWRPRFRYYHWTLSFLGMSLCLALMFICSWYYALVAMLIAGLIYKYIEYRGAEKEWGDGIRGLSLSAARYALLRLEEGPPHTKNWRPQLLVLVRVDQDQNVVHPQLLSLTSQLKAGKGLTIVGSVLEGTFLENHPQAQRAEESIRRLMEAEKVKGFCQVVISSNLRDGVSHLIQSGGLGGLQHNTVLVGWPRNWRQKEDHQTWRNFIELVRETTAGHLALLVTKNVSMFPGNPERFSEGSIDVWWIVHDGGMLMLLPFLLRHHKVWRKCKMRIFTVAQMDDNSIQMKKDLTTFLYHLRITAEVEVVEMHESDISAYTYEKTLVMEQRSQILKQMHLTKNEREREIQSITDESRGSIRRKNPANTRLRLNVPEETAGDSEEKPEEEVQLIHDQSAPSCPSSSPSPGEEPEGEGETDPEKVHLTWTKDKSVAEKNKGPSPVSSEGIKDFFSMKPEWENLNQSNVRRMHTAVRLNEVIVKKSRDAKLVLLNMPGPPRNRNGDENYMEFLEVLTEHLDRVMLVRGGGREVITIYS
# Description: A multi-tiered high-throughput screening assay was used, leveraging a proprietary library of 1.3 million small molecule compounds from AstraZeneca (Cambridge, UK) to identify chemical entities capable of activating KCC2. A single point concentration of 30 μM was used to identify potassium flux using an established thallium (TI+) influx FLIPR assay as the primary read out in HEK-293 cells overexpressing KCC2 (Cardarelli et al., Nat. Med. 23, 1394-1396 (2017); Conway et al., J Biol Chem 292, 21253-21263 (2017); Lee et al., 2022, supra).
# Cell Culture and biotinylation. […]
# FLIPR TI Flux assay. HEK-293 cells were washed with HBSS, and then incubated with loading buffer containing TI sensitive fluorescent dye (https://www.moleculardevices.com), 20 μM bumetanide 20 μM ouabain and 2.5 mM probenecid for 1 h at room temperature (RT) under control conditions or with drugs in the dark using a FlexStation 3 microplate reader (Molecular Devices) and imaged […] for 30 min. Stimulus buffer was added containing 5 mM K^+/0.5 mM Tl^+ and cells were imaged every 1.5 over a 190 second time course The initial rate Tl^+ uptake (Relative Fluorescence Units (RFU) per second) was determined following addition of the stimulus buffer as outlined previously (Conway et al., 2017, supra) (Lee et al., 2022, supra). […]
# KCC2 [3] = target: T1, KCC2; test: cellular thermal shift assay (CETSA) in HEK-293 cells expressing KCC2; assay type: binding
# Description: Cell Culture and biotinylation. HEK-293 cells were purchased from ATCC (CRL-1573) and transfected with human KCC2 and GFP expression plasmids using Lipofectamine 2000. Cells were utilized for experimentation 48-72 h following transfection. Cells were biotinylated at 4° C. using NHS-Biotin. Following lysis and purification on immobilized avidin beads, cell surface and total fractions were subject to immunoblotting as outlined previously (Conway et al., 2017, supra).
# Determining if compounds in SSA directly interact with KCC2. This was tested using a cellular thermal shift assay (CETSA), which measures the ability of a drug to modify the thermal stability of its target in whole cells (Kawatkar et al., ACS Chem. Biol. 14, 1913-1920 (2019); Martinez et al., Sci Rep 8, 9472 (2018)).
# 2×10^6 transfected HEK-293 cells were incubated with 30 μM drug or vehicle for 90 min at 37° C. and then heated from 37-58° C. for 5 min. Cells were rapidly chilled to 25° C. and NP40 was added to a final concentration […] to snap freezing in liquid nitrogen. […]
# Aliquots of HEK-293 cells expressing KCC2 were exposed to 30 μM SSA, heated from 37-55° C. The remaining level of soluble native KCC2 at each temperature was measured by immunoblotting and normalized to the level seen at 37° C. which was given a value of 1. […]
# [4] = system: acute brain slices exposed to 0-Mg; test: late recurrent discharges in acute brain slices exposed to 0-Mg
smiles,measurement,setting,value
"C[C@@H]1CN(c2nc3c(c(Nc4ccc(C5CCCCC5)cc4)n2)COC3)CCO1 [Compound A, (R)—N-(4-cyclohexylphenyl)-2-(2-methylmorpholino)-5,7-dihydrofuro[3,4-d]pyrimidin-4-amine]",activity of a panel of 144 protein kinases,[1],did not modify the activity
same,EC50,"KCC2 [2]; HEK-293 cells, 1% β-cyclodextrin (BCD) vehicle, read-out: EC50 for KCC2 as measured by TI+ flux",261 ± 22.2 nM
same,maximum potentiation of KCC2,"KCC2 [2]; saturating concentration of 3 μM, 1% BCD vehicle",90%
same,direct binding to KCC2 as measured using CETSA,KCC2 [3],capable of directly binding to KCC2
same,development of late recurrent discharges (LRDs),[4],reduced
